The results in this text go back to patent publication US10744150B2, “Cyclic dinucleotides as anticancer agents” (BRISTOL-MYERS SQUIBB COMPANY, priority 2017, dated 2020).

For test [1], the target named is T1, STING AQ: His-TVMV-S-hSTING(155-341)-G230A-R293Q (Homo sapiens, UniProt Q86WV6, G230A/H232R/R293Q).
T1 construct: His-TVMV-S-hSTING(155-341)-G230A-R293Q
Briefly: STING HTRF binding assay (time resolved FRET competition), STING AQ. As to conditions: 20 nM His-tagged STING cytoplasmic domain, 40 nM fluorescein-labeled cGAMP analog probe, one hour; read-out: HTRF Binding Assays IC50 STING AQ. Here is the method: (§1) A time resolved FRET-based competition binding assay was used to assess test article binding to STING WT and STING AQ. His-tagged STING cytoplasmic domain (WT or AQ) at a concentration of 20 nM was incubated with 2.5 nM Tb-labeled anti-His antibody, test compound, and fluorescein-labeled cGAMP analog probe (BioLog cat. no. C195) at a concentration of 200 nM (STING WT) or 40 nM (STING AQ) in PBS containing 0.005% Tween-20 and 0.1% BSA for one hour. Fluorescence at 495 nm and 520 nm was measured using an EnVision microplate reader to quantify FRET between Tb-labeled anti-His antibody and fluorescein-labeled probe. Background was defined as the signal obtained in the absence of STING protein, and background subtracted FRET ratios were normalized to the maximum signal obtained in the absence of test compound. These values were converted to a percent inhibition. Percent inhibition was determined for test compounds at 11 concentrations. The IC50, defined as the concentration of competing test compound needed to reduce specific binding of the probe by 50%, was calculated using the 4 parameter logistic equation to fit the data
Background: TR-FRET usually uses a lanthanide donor and a delayed reading to cut background.

For another test, the system named is NFkB. Briefly: STING THP1 reporter assay, NF-κB pathway (SEAP, QUANTI-Blue). Conditions: THP1-Dual cells, 10% human plasma, 100% activation = 100 μM cGAMP. The class given is cell-based. From the text:
(§2) THP1-Dual™ cells were derived from the human THP-1 monocyte cell line by stable integration of two inducible reporter constructs. To this end, THP1-Dual™ cells allow the simultaneous study of the NF-κB pathway, by monitoring the activity of SEAP, and the IRF pathway by assessing the activity of a secreted luciferase (Lucia). Both reporter proteins are readily measurable in the cell culture supernatant when using QUANTI-Blue™, a SEAP detection reagent, and QUANTI-Luc™, a luciferase detection reagent.
(§3) THP1-Dual™ cells induce the activation of NF-κB in response to STING agonists. They also trigger the IRF pathway upon stimulation with STING agonists, such as cGAMP. Here, the THP-1-Dual cells were used to assess STING binders for function on the cellular level.
(§4) Serial dilutions of compounds in DMSO were added to low volume 384 well plates at 100 nl/well using an ECHO acoustic dispenser (Labcyte, model 550) to achieve final starting concentration of 100 μM in cell suspension. THP-1 Dual™ STING reporter cells (Invivogen, Dual cells cat # THPD-nfis) were added to the plates with compounds at 15,000 cells in 10 μL per well in RPMI media (Gibco, cat #11875) containing 10% human plasma in a low volume 384-well black wall clear bottom tissue culture plate (Corning, cat #3542) for SEAP assay and low volume solid white plate (Corning, cat #3826) for luciferase assay. One column of the plate was reserved for treatment with cGAMP at 100 μM for 100% activation calculation and one column for no treatment (DMSO only) for baseline activation. Plates were then incubated in 37° C. incubator at 5% CO2 for 20 hours.
(§5) In the SEAP assay, 5 μl of 2× QuantiBlue (Invivogen, cat # Rep-qb2) is added to 384 well black plates seeded with THP1 cells and incubated at 37° C. for 2 hours. Plates were read on the Envision (Perkin Elmer) at 620 nm wavelength (OD620). In the luciferase assay, 5 μl of Quantiluc (Invivogen, Rep-qlc2) is added to white 384 well plates seeded with THP1 cells and read at 5 minutes on the Envision (Perkin Elmer) using a luminescence protocol (RLU). For both cell lines, 100% activation was determined by value (RLU) of THP-1 Dual STING cells stimulated with 100 μM cGAMP (Invivogen, cat # TLRL-NACGA23-5).

A further test relates to IRF3. Briefly: STING THP1 reporter assay, IRF pathway (secreted luciferase Lucia, QUANTI-Luc). The class given is cell-based. As to conditions: THP1-Dual cells, 10% human plasma, 100% activation = 100 μM cGAMP, luciferase readout, read-out: THP1 Reporter Assays EC50 IRF3.
Excerpt: as §2, §3, §4, §5

For test [2], the target named is T2, STING WT: His-TVMV-S-hSTING(155-341)-H232R (Homo sapiens, UniProt Q86WV6, H232R).
T2 construct: His-TVMV-S-hSTING(155-341)-H232R
The test is described as follows: STING HTRF binding assay (time resolved FRET competition), STING WT. Conditions: 20 nM His-tagged STING cytoplasmic domain, 200 nM fluorescein-labeled cGAMP analog probe, one hour; read-out: HTRF Binding Assays IC50 STING WT. As to the method:
as §1

Where [3] appears, read: 20 hours, SEAP readout OD620, read-out: THP1 Reporter Assays EC50 NFkB.
Where [4] appears, read: Homo sapiens, THP-1, 20 h, SEAP readout OD620, read-out: THP1 Reporter Assays EC50 NFkB.

Like-named read-outs stand apart in the source and are kept apart here.

T1 sequence (Q86WV6 with tags, fused parts or gaps G230A/H232R/R293Q): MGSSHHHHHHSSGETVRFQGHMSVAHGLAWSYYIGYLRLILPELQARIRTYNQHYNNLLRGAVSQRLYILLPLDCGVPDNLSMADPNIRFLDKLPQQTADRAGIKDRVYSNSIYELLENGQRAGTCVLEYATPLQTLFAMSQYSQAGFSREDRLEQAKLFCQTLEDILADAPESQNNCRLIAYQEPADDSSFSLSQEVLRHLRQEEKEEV
T2 sequence (Q86WV6 with tags, fused parts or gaps H232R): as the sequence (Q86WV6 with tags, fused parts or gaps G230A/H232R/R293Q) above, with A99G, Q162R counted along it

In general, IC50 refers to the point on the concentration scale where inhibition reaches its midpoint. One may read the EC50 as the concentration needed to bring the measured effect to its halfway point. Regarding `Nc1ncnc2c1ncn2[C@@H]1C[C@@H]2COP(O)(=S)O[C@H]3[C@@H](F)[C@H](n4cnc5c(=O)[nH]c6nccn6c54)O[C@@H]3COP(O)(=S)OC[C@H]21` (single isomer, unassigned) [Example 9-4], the IC50 is 0.08 µM in test [1] and 1.4 µM in test [2]. In addition, the EC50 with NFkB (setting [3]) and with IRF3 (20 hours) was above 100 µM in each case.

As to `NC(=O)c1cccc2c1nnn2[C@@H]1O[C@@H]2COP(O)(=S)OC[C@@H]3[C@@H](COP(O)(=S)O[C@@H]1[C@@H]2F)C[C@H]3n1cnc2c(N)ncnc21` (single isomer, unassigned) [Example 11-1], the IC50 amounted to 3.1 µM in test [1] and 20.5 µM in test [2]. For the same compound, the EC50 with NFkB (setting [4]) is above 100 µM; in the test on IRF3 (Homo sapiens, THP-1, 20 h), above 100 µM.

With `NC(=O)c1cccc2c1nnn2[C@@H]1O[C@@H]2COP(O)(=S)OC[C@@H]3[C@@H](COP(O)(=S)O[C@@H]1[C@@H]2F)C[C@H]3n1cnc2c(N)ncnc21` (single isomer, unassigned) [Example 11-2], the IC50 in test [1] was 1.4 µM; in test [2] it was 19.4 µM. Also, the EC50 with NFkB (setting [3]) and with IRF3 (20 hours) was above 100 µM each time.

Turning to `NC(=O)c1cccc2c1nnn2[C@@H]1O[C@@H]2COP(O)(=S)OC[C@@H]3[C@@H](COP(O)(=S)O[C@@H]1[C@@H]2F)C[C@H]3n1cnc2c(N)ncnc21` (single isomer, unassigned) [Example 11-3], the IC50 stood at 0.11 µM in test [1] and 0.82 µM in test [2]. The EC50 in the test on NFkB (setting [3]) stood at 51 µM; with IRF3 (20 hours), 70 µM.

In the case of `NC(=O)c1cccc2c1nnn2[C@@H]1O[C@@H]2COP(O)(=S)OC[C@@H]3[C@@H](COP(O)(=S)O[C@@H]1[C@@H]2F)C[C@H]3n1cnc2c(N)ncnc21` (single isomer, unassigned) [Example 11-4], the IC50 amounted to 23.1 µM in test [1] and 66.2 µM in test [2]. The EC50 in the test on NFkB (setting [3]) and in the test on IRF3 (20 hours) was above 100 µM in each case.

Turning to `NC(=O)c1cccc2c1nnn2[C@@H]1O[C@@H]2COP(O)(=S)OC[C@@H]3[C@@H](COP(O)(=S)O[C@H]2[C@H]1F)C[C@H]3n1cnc2c(N)ncnc21` (single isomer, unassigned) [Example 12-1], the values for the IC50 in test [1] and in test [2] were 19.9 µM and 52.8 µM, respectively. In addition, the EC50 in the test on NFkB (setting [4]) was above 100 µM; in the test on IRF3 (Homo sapiens, THP-1, 20 h), above 100 µM.

For `NC(=O)c1cccc2c1nnn2[C@@H]1O[C@@H]2COP(O)(=S)OC[C@@H]3[C@@H](COP(O)(=S)O[C@H]2[C@H]1F)C[C@H]3n1cnc2c(N)ncnc21` (single isomer, unassigned) [Example 12-2], the values for the IC50 in test [1] and in test [2] were 88.7 µM and above 100 µM, respectively. Also, the EC50 in the test with NFkB (setting [3]) and in the test on IRF3 (20 hours) was above 100 µM throughout.

`NC(=O)c1cccc2c1nnn2[C@@H]1O[C@@H]2COP(O)(=S)OC[C@@H]3[C@@H](COP(O)(=S)O[C@H]2[C@H]1F)C[C@H]3n1cnc2c(N)ncnc21` (single isomer, unassigned) [Example 12-3]: the IC50 is 64.4 µM in test [1] and above 100 µM in test [2]. Moreover, the EC50 in the test on NFkB (setting [3]) and in the test with IRF3 (20 hours) was above 100 µM in each case.

Consider `NC(=O)c1cccc2c1nnn2[C@@H]1O[C@@H]2COP(O)(=S)OC[C@@H]3[C@@H](COP(O)(=S)O[C@H]2[C@H]1F)C[C@H]3n1cnc2c(N)ncnc21` (single isomer, unassigned) [Example 12-4], for which the IC50 in test [1] is 0.4 µM; in test [2], 22 µM. For the same compound, the half-maximal effective concentration (EC50) in the test on NFkB (setting [3]) and in the test with IRF3 (20 hours) was above 100 µM throughout.

In the case of `NC(=O)c1cccc2c1nnn2[C@@H]1C[C@@H]2COP(O)(=S)O[C@H]3[C@@H](F)[C@H](n4cnc5c(N)ncnc54)O[C@@H]3COP(O)(=S)OC[C@H]21` (single isomer, unassigned) [Example 13-1], the results for the IC50 in test [1] and in test [2] were 85.1 µM and above 100 µM, respectively. Also, the EC50 in the test on NFkB (setting [4]) was above 100 µM; in the test on IRF3 (Homo sapiens, THP-1, 20 h) it was above 100 µM.

For `NC(=O)c1cccc2c1nnn2[C@@H]1C[C@@H]2COP(O)(=S)O[C@H]3[C@@H](F)[C@H](n4cnc5c(N)ncnc54)O[C@@H]3COP(O)(=S)OC[C@H]21` (single isomer, unassigned) [Example 13-2], the IC50 was 3 µM in test [1] and above 100 µM in test [2]. Further, the EC50 in the test on NFkB (setting [3]) and with IRF3 (20 hours) was above 100 µM each time.

With `NC(=O)c1cccc2c1nnn2[C@@H]1C[C@@H]2COP(O)(=S)O[C@H]3[C@@H](F)[C@H](n4cnc5c(N)ncnc54)O[C@@H]3COP(O)(=S)OC[C@H]21` (single isomer, unassigned) [Example 13-3], the IC50 in test [1] was 3.8 µM; in test [2], above 100 µM. The EC50 with NFkB (setting [3]) and in the test with IRF3 (20 hours) was above 100 µM each time.

Turning to `NC(=O)c1cccc2c1nnn2[C@@H]1C[C@@H]2COP(O)(=S)O[C@H]3[C@@H](F)[C@H](n4cnc5c(N)ncnc54)O[C@@H]3COP(O)(=S)OC[C@H]21` (single isomer, unassigned) [Example 13-4], the IC50 in test [1] was 0.05 µM; in test [2] it was 3 µM. For the same compound, the EC50 in the test with NFkB (setting [3]) was above 100 µM; with IRF3 (20 hours), 86 µM.

For `O=c1[nH]c2nccn2c2c1ncn2[C@@H]1O[C@@H]2COP(=O)(S)OC[C@@H]3[C@@H](COP(=O)(S)O[C@@H]1[C@@H]2O)C[C@H]3n1cnc2c(O)ncnc21` (single isomer, unassigned) [Example 14-1], the half-maximal inhibitory concentration (IC50) was 4.5 µM in test [1] and 83 µM in test [2]. The EC50 was above 100 µM in the test with NFkB (setting [4]) and above 100 µM in the test on IRF3 (Homo sapiens, THP-1, 20 h).

Turning to `O=c1[nH]c2nccn2c2c1ncn2[C@@H]1O[C@@H]2COP(=O)(S)OC[C@@H]3[C@@H](COP(=O)(S)O[C@@H]1[C@@H]2O)C[C@H]3n1cnc2c(O)ncnc21` (single isomer, unassigned) [Example 14-2], the figures for the IC50 in test [1] and in test [2] were 5.1 µM and 25.5 µM, respectively. Also, the EC50 in the test with NFkB (setting [3]) and with IRF3 (20 hours) was above 100 µM each time.

On to `O=c1[nH]c2nccn2c2c1ncn2[C@@H]1O[C@@H]2COP(=O)(S)OC[C@@H]3[C@@H](COP(=O)(S)O[C@@H]1[C@@H]2O)C[C@H]3n1cnc2c(O)ncnc21` (single isomer, unassigned) [Example 14-3], for which the IC50 in test [1] was found to be 1.7 µM; in test [2] it was 14.3 µM. In addition, the EC50 in the test with NFkB (setting [3]) and in the test on IRF3 (20 hours) was above 100 µM throughout.

With `O=c1[nH]c2nccn2c2c1ncn2[C@@H]1O[C@@H]2COP(=O)(S)OC[C@@H]3[C@@H](COP(=O)(S)O[C@@H]1[C@@H]2O)C[C@H]3n1cnc2c(O)ncnc21` (single isomer, unassigned) [Example 14-4], the IC50 in test [1] turned out to be 0.92 µM; in test [2] it was 4.3 µM. Besides, the EC50 in the test on NFkB (setting [3]) and in the test on IRF3 (20 hours) was above 100 µM in each case.
